In patent US6780403B1, “Deodorants” (Kao Corporation, priority 1999, dated 2004):

Legend:
[1] = acid dissociation index (pK1, pK2) at 25° C.; format: physicochemical; conditions: for Difference (pK2 - pK1): 25° C., method (D); for first acid dissociation index / second acid dissociation index: for the dibasic acid, source of value not given
Protocol: The organic dibasic acid used as a deodorant in the present invention is selected from organic dibasic acids and/or salts thereof having a difference between the first acid dissociation index and the second acid dissociation index of 1.7 or more at 25° C. (hereinafter, described as deodorant organic dibasic acid). The acid dissociation index can be measured, for example, by a method (A) described in The Journal of Physical Chemistry vol.
Further, previously obtained data may also be used. […] Further, the organic dibasic acid can be selected based on data bases (D) such as pKa BASE of Compudrug, and the like. The first acid dissociation index and the second acid dissociation index of the organic dibasic acid may be determined by any of the methods (A) to (D).

[2] = 25° C.; method (D), data bases such as pKa BASE of Compudrug; cited from earlier work

| Molecule | Difference (pK2 - pK1) [1] | first acid dissociation index [1] | second acid dissociation index [1] | First acid dissociation index (pK1) [2] | Second dissociation index (pK2) [2] |
| --- | --- | --- | --- | --- | --- |
| CCC(CC)(C(=O)O)C(=O)O [2,2-diethylmalonic acid] | 5.27 | – | – | 2.15 | 7.42 |
| CC(C)C(C(=O)O)(C(=O)O)C(C)C [2,2-diisopropylmalonic acid] | 6.73 | – | – | 2.12 | 8.85 |
| CC(C)(C(=O)O)C(=O)O [2,2-dimethylmalonic acid] | 2.70 | – | – | – | – |
| CCCC(CCC)(C(=O)O)C(=O)O [2,2-dipropylmalonic acid] | 5.32 | – | – | 1.86 | 7.18 |
| CC(C)(C)C(C(=O)O)C(C(=O)O)C(C)(C)C (centres unmarked) [2,3-di-t-butylsuccinic acid] | 8.06 | – | – | 2.20 | 10.26 |
| CCC(C(=O)O)C(CC)C(=O)O (centres unmarked) [2,3-diethylsuccinic acid] | 2.83 | – | – | 3.63 | 6.46 |
| CC(C(=O)O)C(C)C(=O)O (centres unmarked) [2,3-dimethylsuccinic acid] | 2.08 | – | – | 3.92 | 6.00 |
| CCC(CC)C(CC)(CCC(=O)O)C(=O)O (centres unmarked) [2-ethyl-2-(1-ethylpropyl)glutaric acid] | 5.16 | – | – | 2.15 | 7.31 |
| CCC(C(=O)O)(C(=O)O)C(C)C [2-ethyl-2-isopropylmalonic acid] | 6.07 | – | – | 2.03 | 8.10 |
| CCC(C)(C(=O)O)C(=O)O [2-ethyl-2-methylmalonic acid] | 4.35 | – | – | 2.20 | 6.55 |
| CCC(C(=O)O)C(C)C(=O)O (centres unmarked) [2-ethyl-3-methylsuccinic acid] | 2.90 | – | – | 3.20 | 6.10 |
| CCC(C(=O)O)C(=O)O [2-ethylmalonic acid] | 2.85 | – | – | 2.96 | 5.81 |
| CC(C)C(C(=O)O)C(=O)O [2-isopropylmalonic acid] | 2.96 | – | – | 2.92 | 5.88 |
| CC1CCCCC1(CC(=O)O)CC(=O)O (centres unmarked) [2-methylcyclohexyl-1,1-diacetic acid] | 3.36 | – | – | 3.53 | 6.89 |
| CC(C(=O)O)C(=O)O [2-methylmalonic acid] | 2.71 | – | – | 3.05 | 5.76 |
| CC(C)(C)C(C(=O)O)C(=O)O [2-t-butylmalonic acid] | 4.12 | – | – | 2.92 | 7.04 |
| CCC(CC)(CC(=O)O)CC(=O)O [3,3-diethylglutaric acid] | 3.75 | – | – | 3.67 | 7.42 |
| CC(C)C(CC(=O)O)(CC(=O)O)C(C)C [3,3-diisopropylglutaric acid] | 4.05 | – | – | 3.65 | 7.68 |
| CC1(C)[C@H](C(=O)O)[C@@H]1C(=O)O [3,3-dimethyl-cis-1,2-cyclopropanedicarboxylic acid] | 5.56 | – | – | 2.61 | 8.17 |
| CC(C)(CC(=O)O)CC(=O)O [3,3-dimethylglutaric acid] | 2.60 | – | – | 3.85 | 6.45 |
| O=C(O)CC(CC(=O)O)(c1ccccc1)c1ccccc1 [3,3-diphenylglutaric acid] | 2.79 | – | – | 4.02 | 6.81 |
| CCCC(CCC)(CC(=O)O)CC(=O)O [3,3-dipropylglutaric acid] | 3.83 | – | – | 3.65 | 7.48 |
| CCC(CC(=O)O)(CC(=O)O)c1ccccc1 [3-ethyl-3-phenylglutaric acid] | 3.06 | – | – | 3.89 | 6.95 |
| CC(C)C(C)(CC(=O)O)CC(=O)O [3-isopropyl-3-methylglutaric acid] | 3.14 | – | – | 3.78 | 6.92 |
| CCC(C)(CC(=O)O)CC(=O)O [3-methyl-3-ethylglutaric acid] | 3.08 | – | – | 3.62 | 6.70 |

Now from value to molecule, other results behind:

| Difference (pK2 - pK1) [1] | first acid dissociation index [1] | second acid dissociation index [1] | Molecule | First acid dissociation index (pK1) [2] | Second dissociation index (pK2) [2] |
| --- | --- | --- | --- | --- | --- |
| 1.88 | – | – | O=C(O)[C@@H]1CCCCC[C@H]1C(=O)O (relative stereo) [Trans-1,2-cycloheptanedicarboxylic acid] | 4.30 | 6.18 |
| 1.76 | – | – | O=C(O)[C@@H]1CCCC[C@H]1C(=O)O (relative stereo) [Trans-1,2-cyclohexanedicarboxylic acid] | – | – |
| 1.87 | – | – | O=C(O)[C@@H]1CCCCCC[C@H]1C(=O)O (relative stereo) [Trans-1,2-cyclooctanedicarboxylic acid] | 4.37 | 6.24 |
| 1.85 | – | – | O=C(O)[C@@H]1CCC[C@H]1C(=O)O (relative stereo) [Trans-1,2-cyclopentandicarboxylic acid] | 4.14 | 5.99 |
| 2.05 | – | – | CC(CC(=O)O)(CC(=O)O)c1ccccc1 [3-methyl-3-phenylglutaric acid] | 4.12 | 6.17 |
| 2.59 | – | – | CC1CCCC(CC(=O)O)(CC(=O)O)C1 (centres unmarked) [3-methylcyclohexyl-1,1-diacetic acid] | 3.49 | 6.08 |
| 2.95 | – | – | CC1CCC(CC(=O)O)(CC(=O)O)C1 (centres unmarked) [3-methylcyclopentyl-1,1-diacetic acid] | 3.79 | 6.74 |
| 3.06 | – | – | CCCC(CC(=O)O)(CC(=O)O)c1ccccc1 [3-phenyl-3-propylglutaric acid] | 3.88 | 6.94 |
| 3.88 | – | – | CC(C)(C)C(C)(CC(=O)O)CC(=O)O [3-t-buthyl-3-methylglutaric acid] | 3.61 | 7.49 |
| 2.61 | – | – | CC1CCC(CC(=O)O)(CC(=O)O)CC1 [4-methylcyclohexyl-1,1-diacetic acid] | 3.49 | 6.10 |
| 2.07 | – | – | O=C(O)[C@H]1CC[C@H]1C(=O)O [Cis-1,2-cyclobutanedicarboxylic acid] | 4.16 | 6.23 |
| 3.73 | – | – | O=C(O)[C@H]1CCCCC[C@H]1C(=O)O [Cis-1,2-cycloheptanedicarboxylic acid] | 3.87 | 7.60 |
| 2.49 | – | – | O=C(O)[C@H]1CCCC[C@H]1C(=O)O [Cis-1,2-cyclohexanedicarboxylic acid] | – | – |
| 3.35 | – | – | O=C(O)[C@H]1CCCCCC[C@H]1C(=O)O [Cis-1,2-cyclooctanedicarboxylic acid] | 3.99 | 7.34 |
| 2.15 | – | – | O=C(O)[C@H]1CCC[C@H]1C(=O)O [Cis-1,2-cyclopentanedicarboxylic acid] | 4.42 | 6.57 |
| 3.09 | – | – | O=C(O)[C@H]1C[C@H]1C(=O)O [Cis-1,2-cyclopropanedicarboxylic acid] | 3.56 | 6.65 |
| 3.59 | – | – | O=C(O)CC1(CC(=O)O)CCCCC1 [Cyclohexyl-1,1-diacetic acid] | 3.49 | 7.08 |
| 4.08 | – | – | O=C(O)/C=C\C(=O)O [Maleic acid] | – | – |
| 1.77 | – | – | O=C(O)CC(C(=O)O)c1ccccc1 (centres unmarked) [Phenylsuccinic acid] | 3.78 | 5.55 |
| 3.85 | – | – | CC(C)(C(=O)O)C(C)(C)C(=O)O [Tetramethylsuccinic acid] | 3.56 | 7.41 |
| 2.97 | – | – | O=C(O)CC1(CC(=O)O)CCCC1 [cyclopentyl-1,1-diacetic acid] | 3.80 | 6.77 |
| – | 4.06 | 6.01 | alkenylsuccinic acid carrying an alkenyl group having 12 carbon atoms [a-3] | – | – |
| – | 4.01 | 6.12 | alkenylsuccinic acid carrying an alkenyl group having 14 carbon atoms [a-4] | – | – |
